The values that follow come from patent publication US20150183737A1, “COMPOSITIONS AND METHODS FOR SUBSTRATE-SELECTIVE INHIBITION OF ENDOCANNABINOID OXYGENATION” (Vanderbilt University, priority 2012, published 2015).

Entries after “also recorded” stand apart in the source; their conditions may differ. Read-outs that look alike come from different tables or passages of the source.

One experiment concerns the target T1, COX-2 (Mus musculus, UniProt Q05769).
T1 sequence (Q05769 18-604): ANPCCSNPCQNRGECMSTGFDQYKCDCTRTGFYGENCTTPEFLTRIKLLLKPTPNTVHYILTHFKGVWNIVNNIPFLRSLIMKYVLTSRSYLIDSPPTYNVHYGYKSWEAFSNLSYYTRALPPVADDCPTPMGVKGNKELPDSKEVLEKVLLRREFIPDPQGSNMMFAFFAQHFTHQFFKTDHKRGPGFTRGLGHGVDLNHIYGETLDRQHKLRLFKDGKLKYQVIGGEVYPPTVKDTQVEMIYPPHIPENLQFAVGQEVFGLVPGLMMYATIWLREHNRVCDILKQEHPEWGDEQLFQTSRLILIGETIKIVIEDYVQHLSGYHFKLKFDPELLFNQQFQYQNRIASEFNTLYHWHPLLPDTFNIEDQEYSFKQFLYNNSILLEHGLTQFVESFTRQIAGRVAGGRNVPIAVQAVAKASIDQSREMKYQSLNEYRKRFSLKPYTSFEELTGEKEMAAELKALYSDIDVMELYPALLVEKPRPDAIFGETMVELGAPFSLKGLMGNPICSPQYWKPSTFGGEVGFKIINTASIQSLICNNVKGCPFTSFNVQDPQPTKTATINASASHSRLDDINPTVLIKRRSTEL
Description: Inhibition of COX-2 oxygenation by acetaminophen and its metabolites. It counts as biochemical. As to conditions: for Inhibition of AA oxygenation: up to 1 mM.

The next experiment deals with T2, wild type mCOX-2 (Mus musculus, UniProt Q05769).
T2 sequence (Q05769 18-604): T1 sequence (Q05769 18-604)
Briefly: biochemical.

The target in a further experiment is T3, purified murine COX-2 (Mus musculus, UniProt Q05769).
T3 sequence (Q05769 18-604): T1 sequence (Q05769 18-604)
Description: Inhibition of mCOX-2-dependent oxygenation of 2-AG and AA by lumiracoxib and derivatives in vitro. It counts as biochemical. Details: made in house; host or cells: insect cells; dose or concentration left out as unconfirmed.

In another experiment the target is T4, mCOX-2 (Mus musculus, UniProt Q05769).
T4 construct: made in house; host or cells: insect cells
T4 sequence (Q05769 18-604): T1 sequence (Q05769 18-604)
Briefly: Inhibition of COX-2-mediated oxygenation of arachidonic acid and 2-AG, purified enzyme, 15 min preincubation. It counts as biochemical, murine. On the procedure: Various concentrations of inhibitor (or DMSO) were incubated with mCOX-2 (200 nM) for 5-15 minutes in 100 mM Tris-HCl with 0.5 mM phenol, pH 8.0. For mutant mCOX-2 experiments, the enzyme concentration was adjusted such that the turnover was approximately equal to wild type enzyme. The preincubation time was determined on the basis of previous reports regarding the time required to achieve maximal inhibition, and preincubation was performed at 25° C. except for the final 3 minutes, which took place at 37° C. […] After the preincubation of enzyme and inhibitor, arachidonic acid or 2-AG was added for 30 seconds at 37° C. The reaction was quenched with ice-cold ethyl acetate containing 0.5% (v/v) acetic acid and 1 μM PGE2-d4 and PGE2-G-d5. The solution was then vigorously mixed and cooled on ice. The organic layer was separated and evaporated to near-dryness under nitrogen. […] Peak areas for analytes were normalized to the appropriate internal standard to determine the amount of product formation, and the amount of inhibition was determined by normalization to a DMSO control.

For experiment [1], the system named is brain eCB, AA and PG levels. Briefly: Brain eCB, NAE, MAG, AA and PG levels after i.p. injection. It counts as in vivo, mice. Conditions: for Brain AA levels / Brain PG levels: 10 mg/kg i.p. (Compound A: any dose tested); for Brain AEA levels: 10 mg/kg i.p. On the procedure:
5-7 week old male ICR mice were used for all experiments with the exception of knockout animals (Harlan, Indianapolis, Ind., United States of America). Mice were housed 5 per […]. All behavioral tests were conducted during the light cycle between 0900 and 1700. KO and WT littermate controls for FAAH^(−/−) and COX-2^(−/−) mice were derived from heterozygote breeding pairs, bred and genotyped as described in Uddin et al., 2011. CB1^(−/−) mice were bred from homozygote breeding pairs and genotyped as described in Pan et al., 2008. Mice were group-housed on a 12:12 light-dark cycle (lights on at 06:00), with food and water available ad libitum. All animal studies were approved by the Vanderbilt Institutional Animal Care and Use Committee and conducted in accordance with the Guide for the Care and Use of Laboratory Animals of the United States National Institutes of Health.
(§1) Mice were sacrificed by cervical dislocation and decapitation. The brain, lungs, liver, stomach, small intestines, and kidneys were then rapidly removed and frozen on a metal block in dry ice. The tissue was then placed in a tube and stored at −80° C. until extraction, usually one day after harvesting. For PG and eCB analysis, lipid extraction from tissue was carried out as described in Patel et al., 2009.
(§2) Analytes were quantified using LC-MS/MS on a Quantum triple-quadrupole mass spectrometer in positive-ion mode using selected reaction monitoring. Detection of eicosanoids was performed as described in Kingsley & Marnett, 2007. For fatty acid analysis the mobile phases used were 80 μM AgOAc with 0.1% (v/v) acetic acid in H2O (solvent A) and 120 μM AgOAc with 0.1% (v/v) acetic acid in MeOH (solvent B). The analytes were eluted using a gradient from 20% A to 99% B over 5 minutes. The transitions used were m/z 300→282 for PEA, m/z 328→310 for SEA, m/z 434→416 for OEA, m/z 456→438 for AEA, m/z 464→446 for AEA-d8, m/z 331→257 for 2-PG, m/z 359→285 for 2-SG, m/z 463→389 for 2-OG, m/z 485→411 for 2-AG, m/z 493→419 for 2-AG-d8, m/z 519→409 for AA, and m/z 527→417 for AA-d8. Peak areas for the analytes were normalized to the appropriate internal standard and then normalized to tissue mass for in vivo samples.

The next experiment deals with ICR mice. Description: Novel open field test. It counts as in vivo. As to conditions: 10 mg/kg. On the procedure:
Animals were tested for open-field activity in a novel environment one hour after i.p. injection of compound as described in Sumislawski et al., 2011. Briefly, one-hour sessions were performed using automated experimental chambers (27.9 27.9 cm; MEDOFA-510; MED Associates, Ga., Vermont, United States of America) under constant illumination within a sound-attenuated room. Analysis of open field activity was performed using Activity Monitor v5.10 (MED Associates).

In experiment [2] the test system is peripheral tissue eCB, NAE, MAG and PG levels. Briefly: Peripheral tissue NAE, MAG and PG levels after i.p. injection. It counts as in vivo, mice. As to conditions: stomach, heart, kidney, lung, intestine. On the procedure:
as §1
as §2, with “samples. […]” for “samples.”

Where [3] appears, read: 2-AG IC50, 2-AG oxygenation by COX-2.
The mark [4] stands for this setting: AA IC50, AA oxygenation by COX-2.
Setting [5] is: 15 min incubation, read-out: Maximum inhibition of AA oxygenation (converted).
The mark [6] stands for this setting: read-out: IC50, COX-2 oxygenation of 2-AG, 50 μM 2-AG, 15 min preincubation, LC-MS/MS.

The IC50 is the concentration that gives 50% inhibition. `Nc1ccc(O)cc1` [4-aminophenol]: on COX-2, the IC50 is 71 µM and the “Inhibition of AA oxygenation” value is on record as “No inhibition”.

On to `CC(=O)Nc1ccc(O)cc1` [APAP, acetaminophen], for which the “Inhibition of AA oxygenation” value on COX-2 is listed as “No inhibition”.

As to `COc1ccc2c(c1)c(CC(N)=O)c(C)n2C(=O)c1ccc(Cl)cc1` [B], the IC50 at wild type mCOX-2 (setting [3]) was 590 nM; at wild type mCOX-2 (setting [4]), 610 nM.

`COc1ccc2c(c1)c(CC(=O)NCCO)c(C)n2C(=O)c1ccc(Cl)cc1` [C]: the half-maximal inhibitory concentration (IC50) against wild type mCOX-2 (setting [3]) is 237 nM; against wild type mCOX-2 (setting [4]), 262 nM.

As for `Cc1cccc(F)c1Nc1ccccc1CC(=O)O` [Compound 115], the inhibition on purified murine COX-2 (setting [5]) was 0%; on purified murine COX-2 (inhibitor incubated with enzyme for 15 min before addition of substrate, read-out: AA IC50), below 50%.

Regarding `O=C(O)Cc1ccccc1Nc1c(Cl)cc(Br)cc1Cl` [Compound 116], the inhibition on purified murine COX-2 (setting [5]) is 55%.

Take `COc1ccc2c(c1)c(CC(=O)O)cn2C(=O)c1ccc(Cl)cc1` [DM-INDO]: the half-inhibitory concentration (IC50) on mCOX-2 (50 μM AA, 15 min preincubation, LC-MS/MS, read-out: IC50, COX-2 oxygenation of arachidonic acid) was above 25000 nM; on mCOX-2 (setting [6]), 250 nM.

For `COc1ccc2c(c1)c(CC(=O)N(C)C)c(C)n2C(=O)c1ccc(Cl)cc1` [D], the half-inhibitory concentration (IC50) is 424 nM against wild type mCOX-2 (setting [3]) and 19000 nM on wild type mCOX-2 (setting [4]).

Regarding `CCN(CC)C(=O)Cc1c(C)n(C(=O)c2ccc(Cl)cc2)c2ccc(OC)cc12` [E], the concentration for half-maximal inhibition (IC50) at wild type mCOX-2 (setting [3]) turned out to be 583 nM; against wild type mCOX-2 (setting [4]), 23000 nM.

As for `COc1ccc2c(c1)c(CC(=O)N1CCCCC1)c(C)n2C(=O)c1ccc(Cl)cc1` [F], the IC50 at wild type mCOX-2 (setting [3]) is 653 nM; against wild type mCOX-2 (setting [4]) it was above 25000 nM.

In the case of `COc1ccc2c(c1)c(CC(=O)N(C)CCc1ccccc1)c(C)n2C(=O)c1ccc(Cl)cc1` [G], the half-inhibitory concentration (IC50) is 715 nM on wild type mCOX-2 (setting [3]) and above 25000 nM against wild type mCOX-2 (setting [4]).

For the molecule `Cc1ccc(Nc2c(F)cccc2Cl)c(CC(=O)O)c1` [Lumiracoxib], the “IC50, COX-2 oxygenation of arachidonic acid” value on mCOX-2 (50 μM AA, 15 min preincubation, LC-MS/MS) is reported as “No inhibition”. In addition, the IC50 on mCOX-2 (setting [6]) amounted to 40 nM.

As to `CS(=O)(=O)Nc1ccc([N+](=O)[O-])cc1OC1CCCCC1` [NS-398, reference compound], in experiment [1] (2 hours), the “Brain AA levels” value is on record as “significantly increased” and the “Brain PG levels” value was “profoundly decreased”. The “Brain AEA levels” value in experiment [1] (2 hours, vs vehicle) is on record as “significantly increased”. In the experiment with ICR mice, the “Center distance travelled and center time in the open-field arena” value is reported as “significantly increased”.

In the case of `CS(=O)(=O)c1ccc(C2=C(c3ccccc3)C(=O)OC2)cc1` [Rofecoxib], the IC50 on mCOX-2 (read-out: IC50, COX-2 oxygenation of 2-AG) came out at 85 nM; at mCOX-2 (read-out: IC50, COX-2 oxygenation of arachidonic acid), 520 nM.

Consider `COc1ccc(-n2nc(C(F)(F)F)cc2-c2ccc(Cl)cc2)cc1` [SC-560, reference compound], for which, in experiment [1] (2 hours), the “Brain AA levels” value is reported as “significantly increased” and the “Brain PG levels” value was “profoundly decreased”. In addition, the “Brain AEA levels” value in experiment [1] (2 hours, vs vehicle) is recorded as “significantly increased”. Moreover, the “Center distance travelled and center time in the open-field arena” value in the experiment on ICR mice is reported as “did not have any significant behavioral effect; also recorded: no significant behavioral effects”.

`COc1ccc2c(c1)c(CC(=O)O)c(C)n2C(=O)c1ccc(Cl)cc1` [indomethacin, reference compound]: in experiment [1] (2 hours), the “Brain AA levels” value is recorded as “significantly increased” and the “Brain PG levels” value is reported as “profoundly decreased”. The “Brain 2-AG levels” value in experiment [1] (10 mg/kg i.p. (highest dose), 2 hours, vs vehicle) is recorded as “significantly increased”. Also, in experiment [1] (2 hours, vs vehicle), the “Brain AEA levels” value is recorded as “significantly increased”. Further, in experiment [1] (2 hours after i.p administration, dose not stated), the “Brain AEA levels (Example 8)” value is “increased”. In addition, in experiment [1] (dose not stated), the “Brain or lung PG levels (Example 8)” value was “profoundly decreased”. Moreover, the “PG levels in peripheral tissues” value in experiment [2] was “robustly decreased”. Further, the “Center distance travelled and center time in the open-field arena” value in the experiment with ICR mice was “significantly increased”. The “Center distance travelled and center time in the open-field arena” value with ICR mice (listed as Indomethacin) is recorded as “increased”.
